Patent US20260183275A1, “SUBSTITUTED QUINOLONE COMPOUNDS USEFUL AS INHIBITORS OF TLR9” (Bristol-Myers Squibb Company, priority 2022, published 2026)
pIC50: −log10 of the molar value.

How the values were obtained:
Type in all cases: cell-based
human TLR9 = target: T1, human TLR9 (Homo sapiens, UniProt Q9NR96); assay: TLR9 inhibition reporter assay (HEK-Blue cells, SEAP reporter); settings: HEK-Blue cells overexpressing human TLR9; stimulated with ODN2006 5 nM; SEAP read after 22 hour; dose range 0.05 nM-50 μM
T1 construct: host or cells: HEK-Blue cells
T1 sequence (Q9NR96 26-1032): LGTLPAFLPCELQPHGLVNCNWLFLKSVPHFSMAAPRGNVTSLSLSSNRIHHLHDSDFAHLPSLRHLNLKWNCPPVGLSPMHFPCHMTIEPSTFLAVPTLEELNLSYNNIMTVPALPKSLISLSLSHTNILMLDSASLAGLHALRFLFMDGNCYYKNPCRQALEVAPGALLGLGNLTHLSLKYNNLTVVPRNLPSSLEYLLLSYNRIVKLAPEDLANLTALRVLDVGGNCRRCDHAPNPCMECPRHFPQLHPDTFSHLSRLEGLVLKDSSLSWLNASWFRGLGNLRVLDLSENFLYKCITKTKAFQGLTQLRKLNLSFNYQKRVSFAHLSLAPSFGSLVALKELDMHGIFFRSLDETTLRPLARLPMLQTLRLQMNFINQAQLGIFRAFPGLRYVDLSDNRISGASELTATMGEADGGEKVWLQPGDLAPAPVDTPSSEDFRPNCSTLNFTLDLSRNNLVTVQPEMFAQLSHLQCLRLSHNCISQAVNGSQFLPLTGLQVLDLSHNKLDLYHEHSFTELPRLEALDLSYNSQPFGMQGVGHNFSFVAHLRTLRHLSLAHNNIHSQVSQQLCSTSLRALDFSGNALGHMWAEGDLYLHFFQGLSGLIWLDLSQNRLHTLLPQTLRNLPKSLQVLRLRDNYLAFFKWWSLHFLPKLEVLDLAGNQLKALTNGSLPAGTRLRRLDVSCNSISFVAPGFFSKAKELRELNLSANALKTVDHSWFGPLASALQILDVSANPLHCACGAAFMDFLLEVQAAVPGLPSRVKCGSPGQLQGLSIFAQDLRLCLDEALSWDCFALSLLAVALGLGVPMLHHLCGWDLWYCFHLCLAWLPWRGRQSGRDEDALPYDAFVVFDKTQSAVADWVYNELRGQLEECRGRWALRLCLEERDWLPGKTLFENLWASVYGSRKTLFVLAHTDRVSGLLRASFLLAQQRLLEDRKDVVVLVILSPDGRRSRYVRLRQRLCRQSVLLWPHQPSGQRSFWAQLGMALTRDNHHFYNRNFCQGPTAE
Method in brief: (§1)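 HEK-Blue cells with NF-κB/AP-1-driven SEAP pre-treated 30 min with compounds (0.05 nM-50 μM), then stimulated with gardiquimod 7.5 μM (TLR7), R848 15.9 μM (TLR8) or ODN2006 5 nM (TLR9). SEAP read after 22 h at 37° C; % inhibition relative to agonist+DMSO and reference-inhibitor wells.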

human TLR7 = target: T2, human TLR7 (Homo sapiens, UniProt Q9NYK1); assay: TLR7 inhibition reporter assay (HEK-Blue cells, SEAP reporter); settings: HEK-Blue cells overexpressing human TLR7; stimulated with gardiquimod 7.5 μM; SEAP read after 22 hour; dose range 0.05 nM-50 μM
T2 construct: host or cells: HEK-Blue cells
T2 sequence (Q9NYK1 27-1049): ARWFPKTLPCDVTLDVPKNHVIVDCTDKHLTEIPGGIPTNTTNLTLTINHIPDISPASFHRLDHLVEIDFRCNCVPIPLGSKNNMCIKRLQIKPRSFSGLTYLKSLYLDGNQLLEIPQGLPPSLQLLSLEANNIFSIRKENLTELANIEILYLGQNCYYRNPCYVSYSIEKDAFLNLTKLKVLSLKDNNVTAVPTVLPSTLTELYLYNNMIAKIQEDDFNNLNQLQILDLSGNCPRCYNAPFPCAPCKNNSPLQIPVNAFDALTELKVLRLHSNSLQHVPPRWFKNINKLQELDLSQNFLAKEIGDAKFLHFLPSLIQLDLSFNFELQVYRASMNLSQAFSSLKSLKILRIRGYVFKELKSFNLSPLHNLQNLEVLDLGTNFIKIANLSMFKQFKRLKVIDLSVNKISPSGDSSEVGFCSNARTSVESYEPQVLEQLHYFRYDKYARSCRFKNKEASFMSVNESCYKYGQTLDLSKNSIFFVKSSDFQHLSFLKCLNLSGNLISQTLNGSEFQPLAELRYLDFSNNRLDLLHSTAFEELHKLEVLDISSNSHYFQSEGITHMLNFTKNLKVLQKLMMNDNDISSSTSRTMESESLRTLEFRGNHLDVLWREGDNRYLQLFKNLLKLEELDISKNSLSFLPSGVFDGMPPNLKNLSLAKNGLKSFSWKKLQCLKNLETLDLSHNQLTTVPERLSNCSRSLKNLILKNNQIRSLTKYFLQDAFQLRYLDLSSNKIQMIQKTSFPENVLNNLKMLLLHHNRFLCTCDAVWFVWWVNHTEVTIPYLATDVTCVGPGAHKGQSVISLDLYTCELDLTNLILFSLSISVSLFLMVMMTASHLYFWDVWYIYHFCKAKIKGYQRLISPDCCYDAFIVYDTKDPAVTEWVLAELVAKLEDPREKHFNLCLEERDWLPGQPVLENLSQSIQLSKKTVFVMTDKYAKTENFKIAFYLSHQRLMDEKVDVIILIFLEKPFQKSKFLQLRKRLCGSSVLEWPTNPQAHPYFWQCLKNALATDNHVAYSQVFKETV
Method in brief: as §1

human TLR8 = target: T3, human TLR8 (Homo sapiens, UniProt Q9NR97); assay: TLR8 inhibition reporter assay (HEK-Blue cells, SEAP reporter); settings: HEK-Blue cells overexpressing human TLR8; stimulated with R848 15.9 μM; SEAP read after 22 hour; dose range 0.05 nM-50 μM
T3 construct: host or cells: HEK-Blue cells
T3 sequence (Q9NR97 27-1041): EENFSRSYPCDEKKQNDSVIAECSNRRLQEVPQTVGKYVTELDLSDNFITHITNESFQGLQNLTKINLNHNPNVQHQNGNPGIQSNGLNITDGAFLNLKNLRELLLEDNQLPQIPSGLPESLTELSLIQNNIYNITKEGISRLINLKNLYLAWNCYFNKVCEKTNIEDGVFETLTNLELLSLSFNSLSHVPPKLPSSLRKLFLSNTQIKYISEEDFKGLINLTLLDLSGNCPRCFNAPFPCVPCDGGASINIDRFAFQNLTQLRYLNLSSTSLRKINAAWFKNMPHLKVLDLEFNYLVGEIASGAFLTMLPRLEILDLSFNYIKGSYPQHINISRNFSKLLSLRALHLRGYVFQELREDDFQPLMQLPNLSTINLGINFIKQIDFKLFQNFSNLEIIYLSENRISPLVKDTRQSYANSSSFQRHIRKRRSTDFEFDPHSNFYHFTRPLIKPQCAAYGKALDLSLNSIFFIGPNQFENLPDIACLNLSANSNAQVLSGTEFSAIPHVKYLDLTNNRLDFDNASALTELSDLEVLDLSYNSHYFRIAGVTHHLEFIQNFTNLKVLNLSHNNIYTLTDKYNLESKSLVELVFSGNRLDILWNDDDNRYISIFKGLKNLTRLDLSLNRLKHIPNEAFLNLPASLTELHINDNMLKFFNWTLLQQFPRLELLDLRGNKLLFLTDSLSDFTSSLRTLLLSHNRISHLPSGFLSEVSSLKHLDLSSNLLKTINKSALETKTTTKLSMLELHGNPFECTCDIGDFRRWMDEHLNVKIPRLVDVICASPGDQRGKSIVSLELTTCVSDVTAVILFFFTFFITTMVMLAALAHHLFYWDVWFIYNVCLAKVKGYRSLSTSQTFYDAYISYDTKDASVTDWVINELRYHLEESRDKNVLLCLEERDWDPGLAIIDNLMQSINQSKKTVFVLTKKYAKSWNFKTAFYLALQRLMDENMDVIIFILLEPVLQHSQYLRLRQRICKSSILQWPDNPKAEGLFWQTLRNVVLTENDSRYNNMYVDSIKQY
Method in brief: as §1

SMILES | pIC50 (human TLR9) | pIC50 (human TLR7) | pIC50 (human TLR8)
CC(C)N1CCC(c2ccc(-c3ccc4[nH]c(=O)c(-c5cccc(C#N)c5)cc4c3)cc2)CC1 [Example 69, 3-(2-oxo-6-{4-[1-(propan-2-yl)piperidin-4-yl]phenyl}-1,2-dihydroquinolin-3-yl)benzonitrile] | 7.12 | 6.27 | 4.75
CN1CCC(c2ccc(-c3ccc4[nH]c(=O)c(-c5ccc(NS(C)(=O)=O)cc5)cc4c3)cc2)CC1 [Example 70, N-(4-{6-[4-(1-methylpiperidin-4-yl)phenyl]-2-oxo-1,2-dihydroquinolin-3-yl}phenyl)methanesulfonamide] | 7.11 | 6.69 | ≤ 4.30
CC(C)N1CCC(c2ccc(-c3ccc4[nH]c(=O)c(-c5ccc(S(C)(=O)=O)cc5)cc4c3)cc2)CC1 [Example 71, 3-(4-methanesulfonylphenyl)-6-{4-[1-(propan-2-yl)piperidin-4-yl]phenyl}-1,2-dihydroquinolin-2-one] | 6.85 | 4.52 | 5.03
CC(C)N1CCC(c2ccc(-c3ccc4c(c3)cc(-c3ccc(S(C)(=O)=O)cc3)c(=O)n4CCO)cc2)CC1 [Example 72, 1-(2-hydroxyethyl)-3-(4-methanesulfonylphenyl)-6-{4-[1-(propan-2-yl)piperidin-4-yl]phenyl}-1,2-dihydroquinolin-2-one] | 6.81 | 5.45 | 4.66
CC(C)N1CCC(c2ccc(-c3ccc4c(c3)cc(-c3ccccc3)c(=O)n4C)cc2)CC1 [Example 73, 1-methyl-3-phenyl-6-{4-[1-(propan-2-yl)piperidin-4-yl]phenyl}-1,2-dihydroquinolin-2-one] | 6.66 | 5.83 | 6.12
CC(C)N1CCC(c2ccc(-c3ccc4c(c3)cc(-c3ccc(N(C)S(C)(=O)=O)cc3)c(=O)n4C)cc2)CC1 [Example 74, N-methyl-N-[4-(1-methyl-2-oxo-6-{4-[1-(propan-2-yl)piperidin-4-yl]phenyl}-1,2-dihydroquinolin-3-yl)phenyl]methanesulfonamide] | 6.63 | 4.92 | 4.53

Next, values leading:

pIC50 (human TLR9) | pIC50 (human TLR7) | pIC50 (human TLR8) | SMILES
6.60 | 5.18 | ≤ 4.30 | CC(C)N1CCC(c2ccc(Nc3ccc4c(c3)cc(-c3ccc(S(C)(=O)=O)cc3)c(=O)n4C)cc2)CC1 [Example 75, 3-(4-methanesulfonylphenyl)-1-methyl-6-({4-[1-(propan-2-yl)piperidin-4-yl]phenyl}amino)-1,2-dihydroquinolin-2-one]
6.58 | 5.69 | 5.01 | CN1CCC(c2ccc(-c3ccc4[nH]c(=O)c(-c5ccc(S(C)(=O)=O)cc5)cc4c3)cc2)CC1 [Example 76, 3-(4-methanesulfonylphenyl)-6-[4-(1-methylpiperidin-4-yl)phenyl]-1,2-dihydroquinolin-2-one]
6.57 | 4.99 | 6.44 | CCc1c(-c2ccc(S(C)(=O)=O)cc2)c(=O)n(C)c2ccc(-c3ccc(N4CCN(C(C)C)CC4)cc3)cc12 [Example 77, 4-ethyl-3-(4-methanesulfonylphenyl)-1-methyl-6-{4-[4-(propan-2-yl)piperazin-1-yl]phenyl}-1,2-dihydroquinolin-2-one]
6.54 | 5.67 | 5.65 | CN1CCC(c2ccc(-c3ccc4c(c3)cc(-c3ccc(S(C)(=O)=O)cc3)c(=O)n4C)cc2)CC1 [Example 78, 3-(4-methanesulfonylphenyl)-1-methyl-6-[4-(1-methylpiperidin-4-yl)phenyl]-1,2-dihydroquinolin-2-one]
6.54 | 5.27 | 4.59 | CCn1c(=O)c(-c2ccc(S(C)(=O)=O)cc2)cc2cc(-c3ccc(C4CCN(C(C)C)CC4)cc3)ccc21 [Example 79, 1-ethyl-3-(4-methanesulfonylphenyl)-6-{4-[1-(propan-2-yl)piperidin-4-yl]phenyl}-1,2-dihydroquinolin-2-one]
